From patent US20190105367A1, “ANTIMICROBIAL 4-OXOQUINOLIZINES” (Emergent Product Development Gaithersburg Inc., priority 2011, published 2019)
In brackets after ≈: the same amount, converted by molar mass.

What was measured:
S. pneumoniae 1027 = experiment: MIC, panel of quinolone-resistant strains (Example 2); assay type: cell-based; conditions: Streptococcus pneumoniae, LEV R
E. coli IMP = experiment: microbe, parasite or virus in culture; conditions: Escherichia coli, read-out: MIC E. coli IMP
S. epidermis 12228 = experiment: MIC, standard panel of Gram-positive and Gram-negative strains (Example 2); assay type: cell-based, Staphylococcus epidermis; conditions: Staphylococcus
P. aeruginosa 27853 = experiment: as above; assay type: cell-based; conditions: Pseudomonas aeruginosa
E. coli 25922 = experiment: as above; assay type: cell-based; conditions: Escherichia coli
S. aureus ATCC 25923 = experiment: MIC, selected panel of bacterial strains (Example 5); assay type: cell-based, Staphylococcus aureus; conditions: Staphylococcus aureus, ATCC25923; read-out: MICs against Gram positive bacteria S. aureus ATCC 25923
A. baumannii ATCC 19606 = experiment: MIC determination for Acinetobacter strains (Example 3); assay type: cell-based, Acinetobacter baumannii; conditions: reference strain
A. baumannii A473 = experiment: as above; assay type: cell-based, Acinetobacter baumannii; conditions: LEV R, CIP R, MRP R, IMP R, AMK R, TET R
A. baumannii J2 = experiment: as above; assay type: cell-based, Acinetobacter baumannii; conditions: LEV R, CIP R
A. baumannii A390 = experiment: as above; assay type: cell-based, Acinetobacter baumannii; conditions: LEV R, CIP R, MRP R, IPM I, AMK R, TET I
[1] = system: Acinetobacter spp. H064200250; experiment: as above; assay type: cell-based, Acinetobacter sp.; conditions: LEV R, CIP R, MRP R, IMP I
A. baumannii A489 = experiment: as above; assay type: cell-based, Acinetobacter baumannii; conditions: LEV R, CIP R, MRP R, IMP R, AMK R, TET R
A. baumannii A472 = experiment: as above; assay type: cell-based, Acinetobacter baumannii; conditions: LEV R, CIP R, MRP I, IMP I, AMK R, TET R
A. baumannii A401 = experiment: as above; assay type: cell-based, Acinetobacter baumannii; conditions: LEV R, CIP R, AMK R, TET R
A. baumannii A387 = experiment: as above; assay type: cell-based, Acinetobacter baumannii; conditions: LEV I, CIP R, IPM R, AMK R, TET R
A. baumannii A329 = experiment: as above; assay type: cell-based, Acinetobacter baumannii; conditions: LEV R, CIP R, MRP R, IMP R, AMK R, TET R
[2] = system: GN10 Pseudomonas aeruginosa; experiment: Pre-chequerboard MIC for synergy study (Example 6); assay type: cell-based; conditions: ATCC 27853, antibiotic susceptible
Text: (§1) A chequerboard technique was used to identify possible synergistic or antagonistic interactions between the 4-oxoquinolizines compounds, levofloxacin and polymyxin B. Levofloxacin was included as a control. […] Final dilutions were made in Mueller-Hinton broth, the specific test medium used for MIC determinations according to CLSI guidelines (CLSI. Methods for Dilution Antimicrobial Susceptibility Tests for Bacteria That Grow Aerobically; Approved Standard-Eighth Edition (2009). CLSI Document M07-A8. CLSI, Wayne, Pa. 19087-1898, USA.). The test medium used was a cation-adjusted Mueller-Hinton Broth II (Becton Dickinson UK Ltd., Oxford Science Park, Oxford, UK, OX4 4DQ).
(§2) The compounds 2, 33 and 35, as well as levofloxacin were tested in combination with polymyxin B on the following isolates: GN31 Acinetobacter baumannii—antibiotic susceptible clinical isolate, GN52 Acinetobacter baumannii—levofloxacin resistant clinical isolate, GN56 Acinetobacter baumannii—levofloxacin resistant clinical isolate, GN48 Klebsiella pneumoniae—NCTC 13443—NDM-1-metallo-β-lactamase and GN10 Pseudomonas aeruginosa—ATCC 27853—antibiotic susceptible reference isolate. All isolates are from the collection maintained at Quotient Bioresearch Ltd., Cambridge, UK.
(§3) The MIC values for the compounds and polymyxin B and levofloxacin were determined by broth microdilution following CLSI guidelines, and the MICs of agents in combination were determined as described by Pillai et. al (Pillai S K, Moellering R C Jr, Eliopoulis G M; Antimicrobial Combinations in Antibiotics in Laboratory Medicine 5th Edition (V. Lorian Ed) (2005) p 365-440). Initial MIC results were used to determine the microtiter plate patterns for the chequerboards. A suitable doubling dilution concentration range was selected such that the combination antibiotic range was at least two concentrations above and four concentrations below the MIC for each isolate. A fixed range of 0.008 to 8 mg/L was tested for polymyxin B except in the case of A. baumannii GN31 where a range of 0.004 to 4 mg/L was tested when in combination with the compounds 2, 33 and 35 as well as levofloxacin.

[3] = system: GN56 Acinetobacter baumannii; experiment: Pre-chequerboard MIC for synergy study (Example 6); assay type: cell-based; conditions: levofloxacin resistant clinical isolate
Text: as §1, §2, §3

[4] = system: GN52 Acinetobacter baumannii; experiment: Pre-chequerboard MIC for synergy study (Example 6); assay type: cell-based; conditions: levofloxacin resistant clinical isolate
Text: as §1, §2, §3

[5] = system: GN48 Klebsiella pneumoniae; experiment: Pre-chequerboard MIC for synergy study (Example 6); assay type: cell-based; conditions: NCTC 13443, NDM-1
Text: as §1, §2, §3

[6] = system: GN31 Acinetobacter baumannii; experiment: Pre-chequerboard MIC for synergy study (Example 6); assay type: cell-based; conditions: antibiotic susceptible clinical isolate
Text: as §1, §2, §3

Cc1c(-c2cc(F)c(N)cc2F)ccn2c(=O)c(C(=O)O)cc(C3CC3)c12 [Compound 2, 8-(4-amino-2,5-difluorophenyl)-1-cyclopropyl-9-methyl-4-oxo-4H-quinolizine-3-carboxylic acid]
MIC (S. pneumoniae 1027): 0.5 mg/L (≈ 1.35 µM)

Cc1c(-c2cc(Cl)c(N)c(Cl)c2)ccn2c(=O)c(C(=O)O)cc(C3CC3)c12 [Compound 3, 8-(3,5-dichloro-4-amino-phenyl)-1-cyclopropyl-9-methyl-4-oxo-quinolizine-3-carboxylic acid]
MIC (E. coli IMP): 0.06 mg/L (≈ 0.149 µM) | MIC (S. epidermis 12228): 0.008 mg/L (≈ 0.0198 µM)

Cc1c(-c2ccc(CN)c(F)c2)ccn2c(=O)c(C(=O)O)cc(C3CC3)c12 [Compound 4, 8-(3-fluoro-4-aminomethyl-phenyl)-1-cyclopropyl-9-methyl-4-oxo-quinolizine-3-carboxylic acid]
MIC (P. aeruginosa 27853): 0.5 mg/L (≈ 1.36 µM) | MIC (S. epidermis 12228): 0.06 mg/L (≈ 0.164 µM)

Cc1c(-c2ccc(CN)cc2)ccn2c(=O)c(C(=O)O)cc(C3CC3)c12 [Compound 5, 8-(4-aminomethyl-phenyl)-1-cyclopropyl-9-methyl-4-oxo-quinolizine-3-carboxylic acid]
MIC (P. aeruginosa 27853): 0.5 mg/L (≈ 1.44 µM) | MIC (S. epidermis 12228): 0.06 mg/L (≈ 0.172 µM)

Cc1c(-c2ccc(CN)cc2)c(F)cn2c(=O)c(C(=O)O)cc(C3CC3)c12 [Compound 6, 8-(4-aminomethyl-phenyl)-1-cyclopropyl-7-fluoro-9-methyl-4-oxo-quinolizine-3-carboxylic acid]
MIC (E. coli IMP): 0.03 mg/L (≈ 0.0819 µM) | MIC (S. epidermis 12228): 0.03 mg/L (≈ 0.0819 µM)

Cc1c(-c2ccc(N)cc2)c(F)cn2c(=O)c(C(=O)O)cc(C3CC3)c12 [Compound 7, 8-(4-amino-phenyl)-1-cyclopropyl-7-fluoro-9-methyl-4-oxo-quinolizine-3-carboxylic acid]
MIC (E. coli 25922): 0.03 mg/L (≈ 0.0851 µM)

Cc1c(-c2ccc(N)cc2)ccn2c(=O)c(C(=O)O)cc(C3CC3)c12 [Compound 8, 8-(4-amino-phenyl)-1-cyclopropyl-9-methyl-4-oxo-quinolizine-3-carboxylic acid]
MIC (E. coli 25922): 0.03 mg/L (≈ 0.0897 µM)

C[C@H]1COc2c(N3CCN(C)CC3)c(F)cc3c(=O)c(C(=O)O)cn1c23 [Levofloxacin, reference compound]
MIC (S. aureus ATCC 25923): 0.125 mg/L (≈ 0.346 µM)

Imipenem/cilastatin
MIC A. baumannii ATCC 19606 (A. baumannii ATCC 19606): 2 mg/L | MIC A. baumannii A473 (A. baumannii A473): 32 mg/L | MIC A. baumannii J2 (A. baumannii J2): 4 mg/L | MIC A. baumannii A390 (A. baumannii A390): 16 mg/L | MIC Acinetobacter spp. H064200250 [1]: 16 mg/L | MIC A. baumannii A489 (A. baumannii A489): 128 mg/L | MIC A. baumannii A472 (A. baumannii A472): 16 mg/L | MIC A baumannii A401 (A. baumannii A401): 32 mg/L | MIC A. baumannii A387 (A. baumannii A387): 16 mg/L | MIC A. baumannii A329 (A. baumannii A329): 128 mg/L

Polymyxin B [reference compound]
Pre-chequerboard MIC GN10 Pseudomonas aeruginosa [2]: 1 mg/L | Pre-chequerboard MIC GN56 Acinetobacter baumannii [3]: 0.5 mg/L | Pre-chequerboard MIC GN52 Acinetobacter baumannii [4]: 0.5 mg/L | Pre-chequerboard MIC GN48 Klebsiella pneumoniae [5]: 1 mg/L | Pre-chequerboard MIC GN31 Acinetobacter baumannii [6]: 0.5 mg/L
